Literature values in patent US11168091B2, “Quantification and preparation of pharmaceutical grade cantharidin” (priority 2015, dated 2021).

Details: properly stored in a cool and dry place away from strong light and heat; crude preparation of Table 6

## CC12C(=O)OC(=O)C1(C)C1CCC2O1 (stereo not shown) [crude cantharidin, 1,2-Dimethyl-3,6-epoxyperhydrophthalic anhydride]
  shelf life: 3 years
